Measurements reported in PubChem BioAssay (NCI).
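48-hour exposure; five concentrations; linearly interpolated endpoints. GI50 marks 50% less growth. TGI is the concentration that stops growth completely.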

Columns and labels:
Test in all cases: NCI anticancer screen, dose series, 48 h
[1] = system: NCI-H226 lung
[2] = system: NCI-H23 lung
[3] = system: NCI-H460 lung
[4] = system: NCI-H522 lung
[5] = system: NCI/ADR-RES ovarian
[6] = system: OVCAR-3 ovarian
[7] = system: OVCAR-4 ovarian
[8] = system: OVCAR-5 ovarian
[9] = system: OVCAR-8 ovarian
[10] = system: PC-3 prostate
[11] = system: RPMI-8226 leukemia
[12] = system: RXF 393 renal
[13] = system: SF-268 CNS
[14] = system: SF-295 CNS
[15] = system: SF-539 CNS
[16] = system: SK-MEL-2 melanoma
[17] = system: SK-MEL-28 melanoma
[18] = system: SK-MEL-5 melanoma
[19] = system: SK-OV-3 ovarian
[20] = system: SN12C renal
[21] = system: SNB-19 CNS
[22] = system: SR leukemia
[23] = system: SW-620 colon
[24] = system: T-47D breast
[25] = system: TK-10 renal
[26] = system: U251 CNS
[27] = system: UACC-257 melanoma
[28] = system: UACC-62 melanoma
[29] = system: UO-31 renal

## COc1ccc(C(=O)/C=C/c2cccc(Cl)c2)cc1S(N)(=O)=O
[1]
  GI50: 2.83 µM
  TGI: 11.9 µM
[2]
  GI50: 1.78 µM
  TGI: 3.5 µM
[3]
  GI50: 3.34 µM
  TGI: 11.2 µM
[4]
  GI50: 1.63 µM
  TGI: 3.22 µM
[5]
  GI50: 2.29 µM
  TGI: 6.48 µM
[6]
  GI50: 1.55 µM
  TGI: 3.39 µM
[7]
  GI50: 3.58 µM
  TGI: 14.3 µM
[8]
  GI50: 1.87 µM
  TGI: 4.76 µM
[9]
  GI50: 2.81 µM
  TGI: 11.7 µM
[10]
  GI50: 2.23 µM
  TGI: 6.18 µM
[11]
  GI50: 2.28 µM
  TGI: 6.67 µM
[12]
  GI50: 1.55 µM
  TGI: 3.08 µM
[13]
  GI50: 3.27 µM
  TGI: 13 µM
[14]
  GI50: 2.24 µM
  TGI: 7.94 µM
[15]
  GI50: 1.75 µM
  TGI: 3.78 µM
[16]
  GI50: 12.9 µM
  TGI: 26.2 µM
[17]
  GI50: 2.78 µM
  TGI: 9.4 µM
[18]
  GI50: 3.18 µM
  TGI: 12.6 µM
[19]
  GI50: 6.24 µM
  TGI: 19.1 µM
[20]
  GI50: 1.56 µM
  TGI: 3.64 µM
[21]
  GI50: 3.13 µM
  TGI: 12.4 µM
[22]
  GI50: 0.848 µM
  TGI: 4.9 µM
[23]
  GI50: 1.68 µM
  TGI: 3.53 µM
[24]
  GI50: 2.14 µM
  TGI: 6.68 µM
[25]
  GI50: 2.49 µM
  TGI: 10.5 µM
[26]
  GI50: 1.36 µM
  TGI: 2.69 µM
[27]
  GI50: 5.53 µM
  TGI: 18.9 µM
[28]
  GI50: 1.98 µM
  TGI: 5.51 µM
[29]
  GI50: 1.29 µM
  TGI: 2.73 µM
